The source of these data is patent US3937832A, “Esters of 2,2-diphenyl-cyclopropane-carboxylic acids as cough suppressants” (Societe anonyme dite: Hexachimie, priority 1974, dated 1976).

The structures appear in SMILES notation.

For one data set, the system named is rats. Briefly: Acute toxicity, lethal doses two days after intraperitoneal treatment. It is filed as in vivo. The following applies: rat. The procedure: (§1) The products tested are dissolved in a […] sodium chloride solution or, if they are insoluble in this solution, suspended using "Tween 80" (for oral and intraperitoneal administration) or dissolved in polyethylene glycol 300 (for intravenous administration).
The acute toxicity is determined on batches, each of two rats. The doses administered extend from 4 to 512 mg./kg. in geometrical progression, constant ratio 2.
Table II below gives the 0 to 100 (%) lethal doses, two days after treatment, in mg./kg. administered intraperitoneally.

The subject of data set [1] is phenylbenzoquinone-induced reactions (stretching of the body). Briefly: Antalgic activity: inhibition of phenylbenzoquinone-induced stretching. The following applies: Mus musculus, 1 h, read-out: percentage inhibition relative to control animals; for inhibition in vivo at 16 mg/kg / inhibition in vivo at 64 mg/kg / inhibition in vivo at 32 mg/kg: mice, oral; for inhibition in vivo at 128 mg/kg: po. Format: in vivo. The procedure:
as §1
The products to be tested are administered orally to batches of six mice each weighing 19-21 g. One hour afterwards, 0.20 ml. of an aqueous-alcoholic solution containing 0.02% of phenylbenzoquinone (phenylbenzoquinone: 20 mg, 96% alcohol; 5 ml; water q.s.p. 100 ml) is injected intraperitoneally. The number of reactions (stretching of the body) from the 5th to the 10th minutes following the injection of phenylbenzoquinone is counted.
Table IV gives the percentage inhibition relative to control animals. __________________________________________________________________________ Compound of Example No. Dose, mg/kg 1 2 3 administered and 4 5 7 9 10 11 12 13 14 15 16 18 19 20 orally 6 17 8 __________________________________________________________________________ 16 10 57 -- 23 -- 25 14 21 22 45 24 35 29 40 43 3 26 32 -- 38 37 -- 0 -- -- -- -- -- -- -- -- -- -- -- -- 64 31 63 -- 17 -- 25 19 46 38 36 24 38 29 28 55 26 38 128 -- -- 41 -- 19 -- -- -- -- -- -- -- -- -- -- -- -- __________________________________________________________________________

The subject of data set [2] is subjects suffering from chronic bronchitis. Briefly: Clinical experiments on subjects suffering from chronic bronchitis. Format: in vivo, human. The following applies: subjects with chronic bronchitis. Here is the method:
Clinical experiments were also carried out with the product of Example 1 on subjects suffering from chronic bronchitis.

The subject of data set [3] is cough reaction to stimulation of the upper laryngeal nerves. Briefly: Anti-tussive activity: Domenjoz method (stimulation of upper laryngeal nerves). Format: in vivo, cat. The arrangement: key: 0: inactive; +: marked diminution of cough; ++: suppression of cough for 5 to 15 minutes; +++: suppression of cough for more than 15 minutes. The following applies: anaesthetised cats, intravenous (femoral vein). Here is the method: as §1
Cats are anaesthetised by intraperitoneal injection of 30 mg./kg. of sodium mebubarbital. The arterial pressure is measured on the femoral artery by a Statham P 23 Db gauge. A tracheotomy is carried out; a Y-shaped cannula allows a part of the air breathed out to be branched off onto a Statham PM 6 gauge; the cardiac rhythm is measured by integration of the QRS complexes of the electrocardiogram. All these measurements are amplified and recorded on a Beckman Dynograph. The two upper laryngeal nerves are very carefully dissected and stimulated for 10 seconds by a surging current generated by a Hugo Sachs Stimulator I: voltage 3 volts, duration […], frequency 50 cycles/second. The test products are injected into the femoral vein. The first stimulation takes place 5 minutes after administration of the product and then every 5 minutes until the reaction returns to the initial amplitude. Each nerve is stimulated in turn (left-hand nerve: 5, 15, 25 minutes etc; right-hand nerve 10, […] minutes etc. after treatment).
+ marked diminution of cough
++ suppression of cough for 5 to 15 minutes
+++ suppression of cough for more than 15 minutes

A short description of data set [4]: Solubility under the conditions of the local anaesthetic test. Format: physicochemical. To be noted: sodium chloride solution, pH of 6 to 7. The procedure:
This is investigated by the technique of Bulbring and Wajda. The backs of male guinea pigs weighing 350-450 g. are shaved with an electric razor. 0.1 ml. of a solution of the compounds to be tested is injected into the dermis (only those products which are soluble in the sodium chloride solution and give a pH of 6 to 7 are examined). Four points spaced 2 cm apart are marked on the skin, the product being administered at two of these and the solvent being administered at the remaining two. The skin reflex is examined by pricking each point six times with a mounted bristle. The number of positive reactions is counted and an inhibition percentage is calculated from the total number of positive reactions over the course of 30 minutes. Table V gives the inhibition percentages measured as a function of the concentrations of the solutions. The compounds of Examples 7, 18 and 19 are insoluble under the experimental conditions.

Regarding `O=C(OCCN1CCCCC1)C1CC1(c1ccccc1)c1ccccc1` (stereo not drawn) [Example 1, β-Piperidino-ethyl ester of 2,2-diphenyl-cyclopropane-carboxylic acid], in the data set with rats, the LD0 is 64 mg/kg and the LD100 came to 128 mg/kg. Also, in data set [1], the inhibition in vivo at 16 mg/kg stood at 10% and the inhibition in vivo at 64 mg/kg is 31%. Further, in data set [2], the effect on cough entry was “suppression of the cough”, the facilitation of expectoration entry was “facilitation of expectoration” and the “sensation of feeling better” value is “a sensation of feeling better”. For the same compound, in data set [2] ("the latter" = expectoration), the reduction in expectoration entry is given as “a reduction in the latter”.

As to `O=C(OCCOCCN1CCCC1)C1CC1(c1ccccc1)c1ccccc1` (centres unmarked) [Example 2, 2-(2'-pyrrolidino-ethoxy)-ethyl ester of 2,2-diphenyl-cyclopropane carboxylic acid], in the data set on rats, the LD0 came to 32 mg/kg and the LD100 stood at 128 mg/kg. The “Rating (anti-tussive activity)” value in data set [3] is recorded as “+”. Besides, in data set [1], the inhibition in vivo at 16 mg/kg came to 57%, the inhibition in vivo at 32 mg/kg was 38% and the inhibition in vivo at 64 mg/kg turned out to be 63%.

`O=C(OCCN1CCOCC1)C1CC1(c1ccccc1)c1ccccc1` (stereo not drawn) [Example 3, β-Morpholino-ethyl ester of 2,2-diphenyl-cyclopropane-carboxylic acid]: in the data set on rats, the LD0 turned out to be 128 mg/kg and the LD100 was determined as 256 mg/kg. In data set [1], the inhibition in vivo at 32 mg/kg was 37% and the inhibition in vivo at 128 mg/kg turned out to be 41%.

In the data set on rats, `CN(C)CCOC(=O)C1CC1(c1ccccc1)c1ccccc1` (centres unmarked) [Example 4] registered an LD0 of 128 mg/kg and an LD100 of 256 mg/kg. For the same compound, in data set [1], the inhibition in vivo at 16 mg/kg was 23% and the inhibition in vivo at 64 mg/kg stood at 17%.

On to `O=C(OCCN1CCCC1)C1CC1(c1ccccc1)c1ccccc1` (centres unmarked) [Example 5], for which, in the data set on rats, the LD0 turned out to be 128 mg/kg and the LD100 stood at 256 mg/kg. Besides, in data set [1], the inhibition in vivo at 32 mg/kg was 0% and the inhibition in vivo at 128 mg/kg is 19%.

`O=C(OCCN1CCCCCC1)C1CC1(c1ccccc1)c1ccccc1` (centres unmarked) [Example 7]: in the data set with rats, the LD0 was determined as 64 mg/kg and the LD100 was 128 mg/kg. Also, in data set [1], the inhibition in vivo at 16 mg/kg was 25% and the inhibition in vivo at 64 mg/kg was determined as 25%. In addition, the “solubility under the experimental conditions” value (from here on “solubility”) in data set [4] is “insoluble”.

`CN1CCN(CCOC(=O)C2CC2(c2ccccc2)c2ccccc2)CC1` (centres unmarked) [Example 9]: in the data set on rats, the LD0 was determined as 64 mg/kg and the LD100 was determined as 128 mg/kg. For the same compound, the “Rating (anti-tussive activity)” value in data set [3] was “+”. Moreover, in data set [1], the inhibition in vivo at 16 mg/kg was found to be 14% and the inhibition in vivo at 64 mg/kg is 19%.

In the data set with rats, `CC1CCCN(CCOC(=O)C2CC2(c2ccccc2)c2ccccc2)C1` (centres unmarked) [Example 10] gave an LD0 of 64 mg/kg and an LD100 of 256 mg/kg. In addition, in data set [1], the inhibition in vivo at 16 mg/kg was 21% and the inhibition in vivo at 64 mg/kg amounted to 46%.

In the data set on rats, `CC1CCN(CCOC(=O)C2CC2(c2ccccc2)c2ccccc2)CC1` (centres unmarked) [Example 11] returned an LD0 of 64 mg/kg and an LD100 of 256 mg/kg. For the same compound, in data set [3], the “Rating (anti-tussive activity)” value is “+”. Moreover, in data set [1], the inhibition in vivo at 16 mg/kg turned out to be 22% and the inhibition in vivo at 64 mg/kg turned out to be 38%.

In the data set on rats, `CC1CCCC(C)N1CCOC(=O)C1CC1(c1ccccc1)c1ccccc1` (centres unmarked) [Example 12] had an LD0 of 32 mg/kg and an LD100 of 128 mg/kg. In addition, in data set [1], the inhibition in vivo at 16 mg/kg was determined as 45% and the inhibition in vivo at 64 mg/kg turned out to be 36%.

In the data set on rats, `Cc1ccc(C2(c3ccc(C)cc3)CC2C(=O)OCCN2CCCC2)cc1` (centres unmarked) [Example 13] showed an LD0 of 128 mg/kg and an LD100 of 256 mg/kg. In addition, in data set [1], the inhibition in vivo at 16 mg/kg was 24% and the inhibition in vivo at 64 mg/kg was found to be 24%.

Turning to `Cc1ccc(C2(c3ccc(C)cc3)CC2C(=O)OCCN2CCCCC2)cc1` (centres unmarked) [Example 14], in the data set with rats, the LD0 came to 256 mg/kg and the LD100 is 512 mg/kg. Further, in data set [1], the inhibition in vivo at 16 mg/kg was 35% and the inhibition in vivo at 64 mg/kg was 38%.

For `O=C(OCCN1CCCCC1)C1CC1(c1ccc(Cl)cc1)c1ccc(Cl)cc1` (centres unmarked) [Example 15], in the data set on rats, the LD0 was determined as 128 mg/kg and the LD100 was 256 mg/kg. For the same compound, in data set [3], the “Rating (anti-tussive activity)” value is given as “+”. For the same compound, in data set [1], the inhibition in vivo at 16 mg/kg was determined as 29% and the inhibition in vivo at 64 mg/kg turned out to be 29%.

In the data set with rats, `COc1ccc(C2(c3ccc(OC)cc3)CC2C(=O)OCCN2CCCCC2)cc1` (centres unmarked) [Example 16] returned an LD0 of 128 mg/kg and an LD100 of 512 mg/kg. Besides, the “Rating (anti-tussive activity)” value in data set [3] was “+”. In data set [1], the inhibition in vivo at 16 mg/kg was 40% and the inhibition in vivo at 64 mg/kg was found to be 28%.

In the data set on rats, `O=C(OCCOCCN1CCCCC1)C1CC1(c1ccccc1)c1ccccc1` (centres unmarked) [Example 18] had an LD0 of 64 mg/kg and an LD100 of 256 mg/kg. In data set [1], the inhibition in vivo at 16 mg/kg turned out to be 43% and the inhibition in vivo at 64 mg/kg was found to be 55%. Moreover, the “solubility” value in data set [4] was “insoluble”.

With `O=C(OCCOCCN1CCCCCC1)C1CC1(c1ccccc1)c1ccccc1` (centres unmarked) [Example 19], in the data set on rats, the LD0 was found to be 64 mg/kg and the LD100 was determined as 128 mg/kg. Also, the “Rating (anti-tussive activity)” value in data set [3] is reported as “+”. Moreover, in data set [1], the inhibition in vivo at 16 mg/kg was 3% and the inhibition in vivo at 64 mg/kg stood at 26%. Moreover, the “solubility” value in data set [4] was “insoluble”.

In the data set on rats, `CN1CCN(CCOCCOC(=O)C2CC2(c2ccccc2)c2ccccc2)CC1` (centres unmarked) [Example 20] displayed an LD0 of 64 mg/kg and an LD100 of 128 mg/kg. Further, in data set [3], the “Rating (anti-tussive activity)” value is listed as “+”. Besides, in data set [1], the inhibition in vivo at 16 mg/kg is 26% and the inhibition in vivo at 64 mg/kg turned out to be 38%.
